{
  "source": "patent US12516052B2",
  "about": "“Methyltransferase 5 (PRMT5) inhibitors and methods of treatment” (THE TRUSTEES OF INDIANA UNIVERSITY, priority 2016, dated 2026)",
  "key": {"HT29 cells [1]": {"tested_on": "HT29 cells", "experiment": "Anchorage-independent (soft agar) growth assay in HT29 cells", "format": "cell-based", "settings": "increasing concentrations", "description": "(§1) The ability to form colonies suspended in soft agar is a characteristic of cancer cells. By using the stable cell lines established above, an anchorage-independent assay in soft agar was conducted. 2.5% and 1.25% agar were used to prepare the bottom and top layers of the soft agar, respectively. The bottom agar was added to each well of a 6-well plate. 2×10^5 cells for each cell line were then added and mixed into top agar solution and layered on top of the bottom layer. The plates were incubated for 10-20 days at 37° C. and 5% CO2. Images were captured using a Canon EOS Rebel T3i Digital SLR camera (Canon, Woodridge, IL) and quantification of colony size and number was performed using ImageJ. […] A soft agar experiment was also performed to determine the effect of compound (IIa) on colony growth."}, "[2]": {"experiment": "Body weight of xenografted NSG mice during treatment", "format": "in vivo", "settings": "20 mg/kg intraperitoneally 3×/week, over the course of treatment", "description": "NSG (NOD scid gamma) mice were obtained from the In Vivo Therapeutics Core at Indiana University School of Medicine. After acclimation for 7 days, NSG mice (6-8 weeks old) were xenografted with mycoplasma-free PANC1 or HT29 cells subcutaneously (1×10^7 PANC1 or 3×10^6 HT29 cells used per mouse in 0.2 ml of a 1:1 mix of phosphate-buffered saline and MATRIGEL™) (BD Biosciences, San Jose, CA). Mice were randomized when tumor volumes reached about 100 mm^3. Mice were treated with either vehicle control or 20 mg/kg of compound (Ia) (drug stock dissolved in 1:1 CREMOPHOR™:ethanol solution) intraperitoneally 3 times per week. Tumor volumes and body weights were measured twice a week. The study was performed in accordance with the guidelines and standards of the Institutional Animal Care and Use Committee (IACUC). […] NSG (NOD scid gamma) mice were obtained from the In Vivo Therapeutics Core at Indiana University School of Medicine. After acclimation for 7 days, NSG mice (6-8 weeks old) were xenografted with mycoplasma-free PANC1 or HT29 cells subcutaneously (1×10^7 PANC1 or 3×10^6 HT29 cells used per mouse in 0.2 ml of a 1:1 mix of phosphate-buffered saline and MATRIGEL™) (BD Biosciences, San Jose, CA). Mice were randomized when tumor volumes reached about 100 mm^3. Mice were treated with either vehicle control or 20 mg/kg of compound (IIa) (drug stock dissolved in 1:1 CREMOPHOR™:ethanol solution) intraperitoneally 3 times per week. Tumor volumes and body weights were measured twice a week. The study was performed in accordance with the guidelines and standards of the Institutional Animal Care and Use Committee (IACUC)."}, "[3]": {"tested_on": "PRMT5-mediated p65 methylation", "experiment": "Co-immunoprecipitation-Western blot of p65 dimethylation in 293-WT-p65-Flag cells", "format": "cell-based", "settings": "20 μM for 24 hours, compared to untreated control", "text": "FIGS. 2A-D depict the experimental results of studies to determine the PRMT5 inhibitory activity of a compound of formula (II), a compound of formula (III), and a compound of formula (IV). […] Flag beads were used to pull down WT-p65-Flag and samples were then probed with anti-symmetric dimethyl arginine motif Ab (sdme-RG Ab) to detect dimethylation levels of the p65 subunit.\nAmongst the hits, the leading compounds were a compound of formula (II), specifically compound (IIa), a compound of formula (III), specifically compound (IIIa), and a compound of formula (IV), specifically compound (Iva). […] To determine whether compound (IIa) reduced p65 methylation of NF-κB, Flag-p65 expressing cells were treated with 20 μM compound (IIa) for 24 hours, Flag-p65 was then pulled down with anti-Flag-M2 beads and analyzed with Western blot by probing with anti-dimethylated arginine (FIG. 2B)."}, "HT29 cells [4]": {"tested_on": "HT29 cells", "experiment": "HT29 subcutaneous xenograft tumor efficacy study in NSG mice", "format": "in vivo", "settings": "20 mg/kg intraperitoneally 3×/week, vs vehicle control, n=4", "description": "NSG (NOD scid gamma) mice were obtained from the In Vivo Therapeutics Core at Indiana University School of Medicine. After acclimation for 7 days, NSG mice (6-8 weeks old) were xenografted with mycoplasma-free PANC1 or HT29 cells subcutaneously (1×10^7 PANC1 or 3×10^6 HT29 cells used per mouse in 0.2 ml of a 1:1 mix of phosphate-buffered saline and MATRIGEL™) (BD Biosciences, San Jose, CA). Mice were randomized when tumor volumes reached about 100 mm^3. Mice were treated with either vehicle control or 20 mg/kg of compound (Ia) (drug stock dissolved in 1:1 CREMOPHOR™:ethanol solution) intraperitoneally 3 times per week. Tumor volumes and body weights were measured twice a week. The study was performed in accordance with the guidelines and standards of the Institutional Animal Care and Use Committee (IACUC). […] NSG (NOD scid gamma) mice were obtained from the In Vivo Therapeutics Core at Indiana University School of Medicine. After acclimation for 7 days, NSG mice (6-8 weeks old) were xenografted with mycoplasma-free PANC1 or HT29 cells subcutaneously (1×10^7 PANC1 or 3×10^6 HT29 cells used per mouse in 0.2 ml of a 1:1 mix of phosphate-buffered saline and MATRIGEL™) (BD Biosciences, San Jose, CA). Mice were randomized when tumor volumes reached about 100 mm^3. […] Tumor volumes and body weights were measured twice a week. […]"}, "[5]": {"tested_on": "NF-κB target genes (TNFα and IL8)", "experiment": "qPCR of NF-κB target genes in HT29 cells", "format": "cell-based", "settings": "treated vs untreated", "description": "Furthermore, experiments were performed to determine if PRMT5 inhibition by compound (IIa) could decrease the expression of NF-κB target genes (e.g., pro-inflammatory cytokines TNFα and IL-8). Briefly, HT29 and PANC1 cells were treated with or without compound (IIa), and target gene expression was analyzed by quantitative PCR."}, "PANC1 cells": {"tested_on": "PANC1 cells", "experiment": "Anchorage-independent (soft agar) growth assay in PANC1 cells", "format": "cell-based", "settings": "increasing concentrations", "description": "as §1"}, "NF-κB": {"tested_on": "NF-κB", "experiment": "NF-κB luciferase assay in HT29 cells", "format": "cell-based", "settings": "increasing concentrations", "text": "Previously, it was discovered that PRMT5 activates NF-κB through methylation of its p65 subunit in HEK293 cells (Wei et al., Proc Natl Acad Sci USA, 2013; 110: 13516-13521; Wei et al., Cell Cycle, 2013; 13: 32-41). As shown in FIGS. 11A and 11B, overexpression of PRMT5 enhances NF-κB activity, while PRMT5 knockdown causes the opposite effect in both PANC1 (FIG. 11A) and HT-29 (FIG. 11B) cells. To determine if compound (IIa) decreases NF-κB activity, cells transfected with a NF-κB luciferase construct were treated with increasing concentrations of compound (IIa) or the control compound EPZ015666."}, "[6]": {"tested_on": "other protein arginine methyltransferase family members", "experiment": "HotSpot radioisotope-based methyltransferase platform (Reaction Biology Corp)", "format": "biochemical", "settings": "did not inhibit or at least this fold higher IC50"}},
  "note": "Entries after “also recorded” stand apart in the source; their conditions may differ.",
  "data": [
    {"smiles": "Cc1ccc(Nc2nc(NCCN(C)C)nc3c2cnn3-c2ccccc2)cc1C", "note": "[compound (IIa)]", "values": [
      {"measurement": "anchorage-independent growth / colony formation, HT29 (CRC)", "setting": "HT29 cells [1]", "result": "strongly inhibited colony formation; also recorded: significant decrease"},
      {"measurement": "body weight, HT29 model", "setting": "[2]", "result": "did not visibly affect the body weight; also recorded: no significant changes in body weight"},
      {"measurement": "body weight, PANC1 model", "setting": "[2]", "result": "did not visibly affect the body weight; also recorded: no significant changes in body weight"},
      {"measurement": "methylation of PRMT5 substrate p65", "setting": "[3]", "result": "significantly inhibited PRMT5-mediated p65 methylation; also recorded: inhibited the methylation of PRMT5 substrate, p65"},
      {"measurement": "tumor growth (tumor volume), HT29 xenograft", "setting": "HT29 cells [4]", "result": "significant tumor inhibition effect; also recorded: inhibition of tumor growth"},
      {"measurement": "IL8 expression (qPCR), HT29", "setting": "[5]", "result": "significant decrease; also recorded: dramatically decreased"},
      {"measurement": "TNFα expression (qPCR), HT29", "setting": "[5]", "result": "significant decrease; also recorded: dramatically decreased"},
      {"measurement": "anchorage-independent growth / colony formation, PANC1 (PDAC)", "setting": "PANC1 cells", "result": "strongly inhibited colony formation; also recorded: significant decrease"},
      {"measurement": "NF-κB activation (luciferase), HT29", "setting": "NF-κB", "result": "corresponding decrease in NF-κB activation"},
      {"measurement": "fold higher IC50 against other protein arginine methyltransferase family members", "setting": "[6]", "result": "≥ 10", "unit": "fold"}
    ]}
  ]
}
